Legend:
HL-1 cells [1] = test: Autophagy scored by intracellular distribution of GFP-LC3 (fluorescence microscopy) in HL-1 cells; format: cell-based, murine; details: for effect on upregulation/induction of autophagy by CCPA: inhibitor pretreatment, then CCPA, normoxic, before ischemia
HL-1 cells [2] = test: Cell death by LDH release after simulated ischemia/reperfusion (sI/R) in HL-1 cells; format: cell-based, murine; details: for effect on cytoprotection by CCPA (LDH release): inhibitor plus CCPA, then sI/R (2 hr sI, 3 hr R)
Protocol: Cells of the murine atrial-derived cardiac cell line HL-1^16 were plated in gelatin/fibronectin-coated culture vessels and maintained in Claycomb medium^16 (JRH Biosciences, Lenexa, Kans.) supplemented with 10% fetal bovine serum, 0.1 mm norepinephrine, 2 mm […], 100 U·mL^-1 penicillin, 100 U·mL^-1 streptomycin, and 0.25 μg·mL^-1 amphotericin B. Cells were plated in 14-mm diameter glass bottom microwell dishes (MatTek), and ischemia was introduced by a buffer exchange to ischemia-mimetic solution (in mM: 20deoxyglucose, 125 NaCl, 8 KCl, 1.2 KH2PO4, 1.25 MgSO4, 1.2 CaCl2, 6.25 NaHCO2, 5 sodium lactate, 20 HEPES, pH 6.6) and placing the dishes in hypoxic pouches (GasPakTM EZ, BD Biosciences) equilibrated with 95% N2, 5% CO2. After 2 hr of simulated ischemia, reperfusion was initiated by a buffer exchange to normoxic MKH buffer and incubation at 95% room air, 5% CO2. Controls incubated in normoxic MKH buffer were run in parallel for each condition for periods of time that corresponded with those of the experimental groups. […] The cell cultures were washed with PBS prior to the experimental treatment. Protein content and LDH activity were determined according to El-Ani et al.^20. Briefly, 25 μl supernatants from 35 mm dishes were transferred into wells of a 96-well plate, and the LDH activities were determined with an LDH-L kit (Sigma), according to the manufacturer. The product of the enzyme was measured spectrophotometrically at 30° C. at a wavelength of 340 nm as described previously^21. The results were expressed relative to the control (X-fold) in the same experiment. Each experiment was done in triplicate and was repeated at least three times.

HL-1 cells [3] = test: Cell death by propidium iodide uptake after sI/R in HL-1 cells; format: cell-based, murine; details: 100 nM CCPA 10 min before sI/R; end of reperfusion
Protocol: Cells were plated in 14-mm diameter glass bottom microwell dishes (MatTek), and ischemia was introduced by a buffer exchange to ischemia-mimetic solution (in mM: 20deoxyglucose, 125 NaCl, 8 KCl, 1.2 KH2PO4, 1.25 MgSO4, 1.2 CaCl2, 6.25 NaHCO2, 5 sodium lactate, 20 HEPES, pH 6.6) and placing the dishes in hypoxic pouches (GasPakTM EZ, BD Biosciences) equilibrated with 95% N2, 5% CO2. After 2 hr of simulated ischemia, reperfusion was initiated by a buffer exchange to normoxic MKH buffer and incubation at 95% room air, 5% CO2. Controls incubated in normoxic MKH buffer were run in parallel for each condition for periods of time that corresponded with those of the experimental groups. Cells were stained immediately after sI/R with propidium iodide (5 μg/ml), which stains nuclei of cells whose plasma membranes have become permeable because of cell damage. The assay was performed according to […] et al.^22. For counterstaining we used Hoechst 33342 (10 μM), which stains the nuclei of all cells.

adult rat cardiomyocytes [4] = test: Autophagy (GFP-LC3 puncta) in adult rat cardiomyocytes; format: cell-based
[5] = tested on: mCherry-LC3 transgenic mice; test: Induction of autophagy in vivo in hearts of mCherry-LC3 transgenic mice
adult rat cardiomyocytes [6] = details: CCPA 10 min before simulated ischemia (FIG. 7B)
[7] = tested on: neonatal rat cardiomyocytes; test: Autophagosomes (GFP-LC3) in neonatal rat cardiomyocytes; details: 100 nM CCPA, 10 min
Protocol: To analyze the number of GFP-LC3 puncta in population, cells were inspected at 60× magnification and classified as: (a) cells with predominantly diffuse GFP-LC3 fluorescence; or as (b) cells with numerous GFP-LC3 puncta (>30 dots/cell), representing autophagosomes. At least 200 cells were scored for each condition in three or more independent experiments.
(A) GFP-LC3 transfected HL-1 cells were treated for 120 min in full medium (FM) with various concentrations (0.001-10 μM) of CCPA. (B) GFP-LC3-transfected HL-1 cells were treated with 100 nM CCPA for the indicated time, then fixed with paraformaldehyde and scored by fluorescence microscopy. […] (D) Representative images of neonatal cardiomyocytes under control conditions or 10 min after administration of 100 nM CCPA. (E) Representative images of adult cardiomyocytes under control conditions or 10 min after administration of 100 nM CCPA. (F) Transgenic mice expressing mCherry-LC3 under the αMHC promoter received an i.p. injection of saline or 1 mg/kg CCPA, then were sacrificed 30 min later and heart tissue was processed for fluorescence microscopy.

[8] = tested on: isolated perfused rat hearts; test: Langendorff global ischemia/reperfusion injury in isolated perfused rat hearts (CK release, TTC infarct size, hemodynamics)
[9] = tested on: isolated perfused rat hearts; test: Autophagy in isolated perfused rat hearts (LC3-II/LC3-I Western blot, cadaverine dye binding)
PKC δ = test: PKC delta translocation/redistribution in perfused rat heart and adult rat cardiomyocytes; format: cell-based
PKC epsilon = PKC epsilon translocation in perfused rat heart; format: cell-based; details: after SUL administration
Protocol: Subcellular fractionation. Frozen heart samples were thawed on ice in homogenization buffer containing (in mmol/L): Tris-HCL 20, EDTA 2, EGTA 10, PMSF 1, leupeptin 0.1, E-64 0.01, and sucrose 250). The tissue was then minced and Plytron homogenized (Kinematica, Basel, Switzerland) on ice for 15s for three passes. The homogenates were centrifuged at 600 g for 5 min at 4° C, and the crude supernatants were further centrifuged at 10,000 g for 10 min 4° C. The supernatant, designated as crude cytosol, was divided and one fraction was further centrifuged at 100,000 g for 1 h at 4° C. The resulting supernatant was designated as cytosolic fraction. The pellet was resuspended in homogenization buffer with 1% TritonX-100, incubated on ice for 1 h, then centrifuged at 100,000 g for 1 h at 4° C. The resulting supernatant was designated as the particulate fraction. Samples were stored at −80° C. until use. Western blot analysis. Proteins prepared from rat hearts were quantified by Bio-Rad protein assay. For immunodetection, 50 μg of crude cytosol prepared as above were resolved on SDS-PAGE 10% denaturing gels and transferred to PVDF nylon membranes. The membranes were blocked with 5% nonfat dry milk in TNT buffer (in mM: NaCl 100, Tris·HCl 10 (pH 7.4), and 0.1% Tween-20) for 1 h. […] To quantify the protein, intensity of bands was assessed with Scion Image Software.

CC(=O)OCOC(=O)CN(CC(=O)OCOC(C)=O)c1ccccc1OCCOc1ccccc1N(CC(=O)OCOC(C)=O)CC(=O)OCOC(C)=O [BAPTA-AM]
effect on upregulation/induction of autophagy by CCPA (HL-1 cells [1]): suprressed the induction of autophagy by CCPA

OC[C@H]1O[C@@H](n2cnc3c(NC4CCCC4)nc(Cl)nc32)[C@H](O)[C@@H]1O [CCPA, 2-chloro-N(6)-cyclopentyladenosine]
percentage of cells with numerous autophagosomes (autophagic flux) (HL-1 cells [1]; 100 nM 10 min, full medium, with or without Bafilomycin A1 (FIG. 2)): increased the percentage of cells with numerous autophagosomes under both steady-state and cumulative conditions
autophagosomes after sI/R (HL-1 cells [1]; 100 nM 10 min, then 2 hr sI, 3 hr R): Fewer autophagosomes
extent of autophagy induced by starvation (HL-1 cells [1]; 100 nM 10 min, then starvation in MKH 3 hr): no effect
autophagy in delayed preconditioning (HL-1 cells [1]; 24 hr after 10 min CCPA and washout, normoxia): upregulated
repair autophagy at reperfusion in delayed preconditioning (HL-1 cells [1]; 24 hr after 10 min CCPA, then sI/R): less
persistence of the increase in autophagosomes (HL-1 cells [1]; CCPA 100 nM): at least 300 min
time to increase in the number of autophagosomes (HL-1 cells [1]; CCPA 100 nM): ≤ 10 min
induction of autophagy (HL-1 cells [1]; full medium, 0.001-10 μM, 120 min (FIG. 1A)): induced autophagy in a dose-dependent fashion
LDH release (HL-1 cells [2]; 100 nM CCPA 10 min before sI/R, end of simulated ischemia): diminished LDH release
uptake of propidium iodide (HL-1 cells [3]): diminished
autophagy (percentage of cells with numerous puncta) (adult rat cardiomyocytes [4]; CCPA 10 min (FIG. 7A)): induced autophagy
number of mCherry-LC3-labeled structures in left ventricle cryosections ([5]; CCPA 1 mg/kg i.p., 30 min): a large increase in the number of mCherry-LC3-labeled structures
cytoprotection (LDH release at end of simulated ischemia) (adult rat cardiomyocytes [6]): conferred cytoprotection
number of autophagosomes [7]: an increase in the number of autophagosomes

CCCn1c(=O)c2[nH]c(C3CCCC3)nc2n(CCC)c1=O [DPCPX]
effect on upregulation/induction of autophagy by CCPA (HL-1 cells [1]): partially blocked
effect on autophagy in the second window of protection (HL-1 cells [1]; with CCPA 10 min, washout, 20-24 hr later): blocked the effects of CCPA on autophagy
effect on cytoprotection by CCPA (LDH release) (HL-1 cells [2]): Cytoprotection was abolished
effect on cytoprotection by CCPA in the second window of protection (LDH release) (HL-1 cells [2]; with CCPA 10 min, washout, sI/R 20-24 hr later): abolished the cytoprotection by CCPA

Nc1ccc(S(=O)(=O)Nc2ccnn2-c2ccccc2)cc1 [SUL, sulfaphenazole]
percentage of cells with numerous autophagosomes (adult rat cardiomyocytes [4]; 10 μM SUL, 30 min): significantly increased
number of autophagosomes in hearts ([5]; SUL 10 mg/kg i.p.): significant increase in the number of autophagosomes
contractility before ischemia ([8]; 10 μM SUL): no effect
infarct size (TTC) ([8]; 10 μM SUL from 10 min before ischemia, 30 min ischemia, 120 min reperfusion): reduced infarct size
recovery of contractile function after I/R ([8]; 10 μM SUL, pre-ischemic administration): about 90 % of pre-ischemic value
CK release ([8]; 10 μM SUL, coronary effluent, first 15 min of reperfusion): attenuated CK release
infarct size ([8]; SUL alone, 120 min reperfusion): 5 % of the area at risk
infarct size (TTC) ([8]; SUL introduced at the onset of reperfusion): the reduction of infarct size was sustained
infarct size (TTC) ([8]; SUL introduced at the onset of reperfusion, listed as sulfaphenazole): reduces infarct size
BODIPY-TR-cadaverine incorporation into autophagosomes ([9]; SUL administration (FIG. 15B)): increased
ratio of LC3-II/I ([9]; SUL perfusion 30 min): doubling
PKC delta translocation (cytosol to particulate fraction) (PKC δ; Langendorff-perfused heart, 30 min after SUL infusion): translocation of PKC delta to the particulate fraction
distribution of PKC delta (immunostaining) (PKC δ; adult rat cardiomyocytes, SUL 15 min): much more closely aligned with alpha-actinin
PKC epsilon translocation (PKC epsilon): did not show a consistent pattern of translocation

COc1ccc2c(c1)CC[C@@H]1[C@@H]2CC[C@]2(C)[C@@H](NCCCCCCN3C(=O)C=CC3=O)CC[C@@H]12 [U73122]
autophagy after sI/R (repair autophagy) (HL-1 cells [1]; inhibitor 15 min, then CCPA 10 min, then sI/R): an increase in autophagy after sI/R
effect on upregulation/induction of autophagy by CCPA (HL-1 cells [1]): PLC is required for CCPA stimulation of autophagy before ischemia
effect on cytoprotection by CCPA (LDH release) (HL-1 cells [2]): an increase in LDH release

COc1ccc2c(c[n+](C)c3c4cc5c(cc4ccc23)OCO5)c1OC [chelerythrine]
effect on SUL-induced increase in cells with numerous autophagosomes (adult rat cardiomyocytes [4]; chelerythrine 5 μM 10 min before 10 μM SUL): suppressed
infarct size with or without SUL ([8]; chelerythrine 15 min before ischemia): no difference in infarct size whether SUL is present or absent
effect on autophagy induced by SUL (cadaverine dye binding) ([9]; chelerythrine with SUL): suppressed autophagy induced by SUL

C/C=C(/C)C(=O)O[C@H]1C(C)=C2[C@H]([C@@H]1OC(=O)CCCCCCC)[C@@](C)(OC(C)=O)C[C@H](OC(=O)CCC)[C@@]1(O)[C@H]2OC(=O)[C@@]1(C)O [thapsigargin]
effect on upregulation/induction of autophagy by CCPA (HL-1 cells [1]): suprressed the induction of autophagy by CCPA

From patent US20130202646A1, “COMPOSITIONS AND METHODS FOR MODULATING AUTOPHAGY” (SAN DIEGO STATE UNIVERSITY (SDSU) FOUNDATION, priority 2010, published 2013)
